Source: US20230346884A1, “Molecular Targets for Modulation of Dissociative and Associative States” (The Board of Trustees of the Leland Stanford Junior …, priority 2020, published 2023)
“Also recorded” adds a separate entry of the source.

Tests used:
[1] = tested on: deep RSP neurons; experiment: 32-channel two-shank silicon probe recording in deep RSP; format: in vivo, mouse; details: 50 mg/kg ketamine
Experimental: Mice were anesthetized with isoflurane, a small craniotomy (˜2 mm diameter) was performed above retrosplenial cortex, and a custom head-plate implanted. The dura was gently removed, and then covered with Kwik-Cast Sealant (World Precision Instruments). A skull screw was implanted and secured with cement in the right frontal skull bone. Mice were given 1-2 hours to recover. […] The deepest tip of the electrode was 800-1000 μm from the brain surface for all recordings.
Extracellular electrophysiological data were recorded using 32 channel acute silicon probes (ASSY-37 P-1, Cambridge Neurotech) acquired at 30 kHz. Following common average referencing, well-isolated single units were identified using KiloSort and Phy. Data were analyzed using custom Matlab scripts. Instantaneous firing rate was computed using 1 ms bins. We used a Hidden Markov Model with two states to label ON and OFF states. ON states were considered to represent bursts, and OFF states were inter-burst intervals. We fit the emission and transition parameters of the model using the Baum-Welch algorithm (Matlab hmmtrain with a convergence threshold of 1 e-6 and initial guesses of transition matrix: [0.95, 0.05; 0.05, 0.95] and emission: [0.5, 0.5; […]]), and then estimated the state assignment at each time point using the Viterbi algorithm (Matlab hmmviterbi). Various initial guesses were tested, and they yielded the same or similar model fit. For population analyses, a bin size of 2 was used. In FIG. 10, we are looking at the number of spikes in each burst, which can vary depending on the neuron being recorded, so we included every burst for every neuron. To quantify the consistency of the sequential onset of activation across bursts, we ranked each unit by its onset time for each burst. We then ordered the units according to their median rank across bursts. For each burst, we fit a linear model between the ranking in that burst and the median rank. The distribution of correlation coefficients was then plotted across bursts for each mouse and treatment condition.

[2] = tested on: mice; experiment: Resident-intruder social interaction assay; format: in vivo, mouse
Experimental: Social Interaction Assay: Resident-intruder social interaction was recorded for two minutes. Interactions were defined as close physical proximity behaviors, including sniffing, touching, and following. […] Illumination began 30 seconds before the same-sex intruder mouse was introduced.

[3] = tested on: retrosplenial cortex (RSP); experiment: Fiber photometry in RSP (GCaMP6m); format: in vivo, mouse
From the text: A 405 nm and 470 nm LED illumination (Thorlabs) was combined (425 nm longpass, Thorlabs DMLP425) and coupled into a fiber optic patch cord (400 μm diameter, 0.48 NA, Doric Lenses) using a longpass dichroic (505 nm, Thorlabs DMLP505) and a fixed-focused coupler/collimator with a standard FC connector (F240FC-A, NA 0.51, f =7.9 mm)^47,48. Each illumination channel was frequency modulated using the sync output from a lock-in amplifier (SR810 DSP, Stanford Research Systems). GCaMP fluorescence was collected through the same patchcord and delivered through a bandpass emission filter (Semrock, FF01-520/35) onto a NewFocus 2151 femtowatt silicon photoreceiver (Newport, DC Low mode). The signal from the photoreceiver was split into each lock-in amplifier, and the filtered outputs were digitized at 5 kHz using a NIDAQ (National Instruments PCIe-6353) and saved using a MATLAB (MathWorks) acquisition script.
Analysis was performed using custom MATLAB (MathWorks) scripts. Widefield imaging videos were registered to a 2D top-projection atlas generated from the annotated Allen Brain Atlas volume, version CCFv2, in MATLAB (MathWorks), using an affine transformation computed from four manually selected control points. Each video was DF/F normalized, using the median for each pixel over the entire time series as F. The 410 nm channel was then temporally smoothed using a moving average (width=400 ms). The smoothed 410 nm DF/F signal for each pixel was regressed onto the 488 nm DF/F signal for the corresponding pixel, and the regression coefficients were used to scale the 410 nm channel to the 488 nm channel. This scaled 410 nm DF/F signal was then subtracted from the 488 nm DF/F signal to produce a normalized signal for each pixel. For quantification, activity traces were extracted from points centered in five cortical regions (visual, somatosensory, parietal, motor, retrosplenial) on the left hemisphere of the brain. The video data was Gaussian smoothed spatially (radius=2 pixels). Similarly, for fiber photometry recordings, the 410 nm signal was regressed onto the 488 nm signal, the 410 nm signal was scaled by the regression coefficients, and then subtracted from the 488 nm signal.
Each trace (corresponding to either a fiber photometry signal, a cellular two-photon signal, a widefield regional centroid, a widefield pixel, an sEEG trace, or a smoothed spike rate Neuropixels trace) was z-scored, and the power spectral density (PSD) was then estimated using Welch's method (pwelch( ) in Matlab), with a window size of 10*fs (15*fs for human sEEG) where fs is the sampling rate of the signal. The average band power within a specified band (i.e. 1-3 Hz) was then computed by integrating the PSD estimate (bandpower in Matlab). For displaying the traces of individual cells, traces were each zscored by subtracting the mean value of the trace (across the whole recorded time window) and dividing by the standard deviation of the trace. Unless otherwise indicated, the PSD was computed across the time window from minutes 10 to 11 post-injection.
Stereotaxic Surgery: Adult male and female HCN1^f/f, NR1^f/f, or wildtype C57/B16 were injected bilaterally in two retrosplenial locations (AP −3.1 and −3.4, ML+/−0.5, DV −0.5) with 1 uL of AAV8-Ef1a-mCherry-IRES-Cre (titer 5E11) and AAVdj-Ef1a-DIO-GCaMP6m (titer 1E13). A 400-micron optical fiber was implanted over one injection location. At least four weeks were allowed for viral expression and gene disruption before photometry recording. For gene knockout behavior experiments, injections of AAVdj-Ef1a-Cre were made at (AP −2.7, −3.1 and −3.5, ML+/−0.5, DV −1.35 and −0.70). For gene knockout control behavioral experiments, two retrosplenial injections of AAVdj-Efla-Cre were made in experimental animals.

[4] = tested on: retrosplenial cortex (RSP); experiment: Widefield (pan-cortical) imaging of cortical activity in GCaMP6s mice
Experimental: (2 mg/kg), lidocaine (topical), LSD ((+)-Lysergic acid diethylamide (+)-tartrate (2:1), 0.3 mg/kg), and diazepam (2 mg/kg). […] For anti-depressant effects, human doses are typically 0.3-1 mg/kg, and in mouse 3-10 mg/kg.
As described^8, mice were anesthetized with isoflurane, the scalp was removed, the skull cleaned and dried, and a custom head-plate was cemented to contacts over the cerebellum and in front of the olfactory bulb. The skull was then covered in a thin layer of cyanoacrylate glue (Apollo 2000, Cyberbond), clear dental acrylic (Ortho-Jet, Lang Dental), and clear nail polish (Electron Microscopy Services). […] (0.1 mg/kg) was injected subcutaneously for pain management. […] Imaging was performed on a custom-built fluorescence microscope designed for high light collection efficiency and large field of view. […] Alternating 410 nm and 488 nm illumination for non-Ca^2+ dependent artifact removal was controlled using a microcontroller (Arduino) slaved to the frame output trigger of the camera.

[5] = tested on: humans; details: human; cited from earlier work

CNC1(c2ccccc2Cl)CCCCC1=O (stereo not shown) [ketamine]
Duration of silent states between bursts [1]: ~250 ms
Duration of synchronous bursts of deep RSP neurons [1]: ~250 ms
Participation of units in burst events [1]: nearly all identified units participated in every burst event
Spikes per burst of individual units [1]: 5-10 spikes/burst
Resident-intruder social interactions vs. wild-type ([2]; both channel-knockouts (HCN1, GRIN1), ketamine): modestly-recovered
Resident-intruder interactions ([2]; ketamine >=25 mg/kg): suppressed
Glass's A, power 25 mg/kg vs 13 mg/kg (FIG. 3C) ([3]; 10 min after injection): 3.2
Hedge's g effect-size, oscillation-power GRIN1-pre/GRIN1-post (FIG. 4E) ([3]; GRIN1 knockout, ketamine): 2.03
Hedge's g effect-size, oscillation-power HCN1-pre/HCN1-post (FIG. 4E) ([3]; HCN1 knockout, ketamine): 1.02
1-3 Hz RSP oscillation ([3]; ketamine 25 mg/kg, widefield imaging and fiber photometry): revealed a 1-3 Hz oscillation at 25 mg/kg
Ketamine-induced oscillations ([3]; local RSP GRIN1 (NMDAR) knockout mice, four weeks after virus): significantly diminished; also recorded: partially attenuated
Ketamine-induced oscillations ([3]; local RSP HCN1 knockout mice, four weeks after virus): significantly diminished
Ketamine-induced oscillations ([3]; wild-type mice): preserved in wild-type
Hedge's g effect-size, oscillation-power WT-pre/WT-post (FIG. 4E) ([3]; wild-type, ketamine): 3.22
Time over which ketamine-induced oscillation decayed ([4]; Supplementary Note 2): ~15 min
Time over which ketamine-induced oscillation emerged ([4]; Supplementary Note 2): 2 min
Ketamine-induced 1-3 Hz movements ([4]; ketamine 50 mg/kg i.p.): no ketamine-induced 1-3 Hz movements were observed
Time for rhythm to emerge ([4]; ketamine 50 mg/kg i.p.): ≤ 120 s
Time for rhythm to return to baseline ([4]; ketamine 50 mg/kg i.p.): ~45 min
Magnitude of rhythm on repeated days ([4]; ketamine, five consecutive days): exhibited similar magnitude across five consecutive days
RSP activity-correlations with other dorsal-cortical regions ([4]; subanesthetic ketamine): reduced RSP activity-correlations with all other dorsal-cortical regions
Spread of the ketamine-rhythm ([4]; to other layers or nearby cortical regions): did not spread beyond layer 5 neurons in retrosplenial cortex
Cortical activity pattern: 1-3 Hz oscillation localized to retrosplenial cortex (RSP) ([4]; widefield imaging, i.p., ketamine 50 mg/kg subanesthetic dose, other drugs at doses of b234): a 1-3 Hz oscillation emerged in retrosplenial cortex (RSP), but not in any other cortical region
Dose at which potent dissociation is consistently reported [5]: 2 to 3 mg/kg
Doses for anti-depressant effects [5]: 0.3 to 1 mg/kg
